# In PubChem BioAssay (NCI):
#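 Tested at 5 concentrations; 48 h exposure; 96-well plates; endpoints linearly interpolated, else capped at highest concentration. The concentration for 50% growth inhibition is given as GI50. At the TGI there is no net growth.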
# Experiments:
# Assay in all cases: NCI anticancer screen, dose series, 48 h
# DU-145 prostate = system: DU-145 prostate
# NCI-H226 lung = system: NCI-H226 lung
# TK-10 renal = system: TK-10 renal
# SK-MEL-5 melanoma = system: SK-MEL-5 melanoma
# MOLT-4 leukemia = system: MOLT-4 leukemia
# MDA-MB-231 breast = system: MDA-MB-231 breast
# RPMI-8226 leukemia = system: RPMI-8226 leukemia
# HT29 colon = system: HT29 colon
# SF-539 CNS = system: SF-539 CNS
# SF-268 CNS = system: SF-268 CNS
# SNB-75 CNS = system: SNB-75 CNS
# HL-60(TB) leukemia = system: HL-60(TB) leukemia
# PC-3 prostate = system: PC-3 prostate
# U251 CNS = system: U251 CNS
# IGROV1 ovarian = system: IGROV1 ovarian
# KM12 colon = system: KM12 colon
# EKVX NSCLC = system: EKVX NSCLC
# SNB-19 CNS = system: SNB-19 CNS
# MCF7 breast = system: MCF7 breast
# LOX IMVI melanoma = system: LOX IMVI melanoma
# OVCAR-4 ovarian = system: OVCAR-4 ovarian
# SK-MEL-2 melanoma = system: SK-MEL-2 melanoma
# OVCAR-3 ovarian = system: OVCAR-3 ovarian
# HCC-2998 colon = system: HCC-2998 colon
# NCI-H522 lung = system: NCI-H522 lung
# T-47D breast = system: T-47D breast
# MALME-3M melanoma = system: MALME-3M melanoma
# K-562 leukemia = system: K-562 leukemia
# HCT-15 colon = system: HCT-15 colon
# 786-0 renal = system: 786-0 renal
# HOP-92 NSCLC = system: HOP-92 NSCLC
# NCI-H23 lung = system: NCI-H23 lung
# CCRF-CEM leukemia = system: CCRF-CEM leukemia
# HS 578T breast = system: HS 578T breast
# OVCAR-8 ovarian = system: OVCAR-8 ovarian
# A549 NSCLC = system: A549 NSCLC
# CAKI-1 renal = system: CAKI-1 renal
# UO-31 renal = system: UO-31 renal
# NCI-H460 lung = system: NCI-H460 lung
# MDA-MB-435 = system: MDA-MB-435
# SN12C renal = system: SN12C renal
# NCI/ADR-RES ovarian = system: NCI/ADR-RES ovarian
# A498 renal = system: A498 renal
# RXF 393 renal = system: RXF 393 renal
# SW-620 colon = system: SW-620 colon
# ACHN renal = system: ACHN renal
# UACC-62 melanoma = system: UACC-62 melanoma
# BT-549 breast = system: BT-549 breast
# COLO 205 colon = system: COLO 205 colon
# OVCAR-5 ovarian = system: OVCAR-5 ovarian
# M14 melanoma = system: M14 melanoma
# SK-MEL-28 melanoma = system: SK-MEL-28 melanoma
# HCT-116 colon = system: HCT-116 colon
# UACC-257 melanoma = system: UACC-257 melanoma
# SK-OV-3 ovarian = system: SK-OV-3 ovarian
# SF-295 CNS = system: SF-295 CNS
# HOP-62 NSCLC = system: HOP-62 NSCLC
smiles,measurement,setting,value
CC1=C(C)C(=O)C(Nc2cccc(C(F)(F)F)c2)=C(Cl)C1=O,GI50,DU-145 prostate,15.6 µM
same,TGI,DU-145 prostate,34.8 µM
same,GI50,NCI-H226 lung,10.8 µM
same,TGI,NCI-H226 lung,34.8 µM
same,GI50,TK-10 renal,19 µM
same,TGI,TK-10 renal,37 µM
same,GI50,SK-MEL-5 melanoma,4.14 µM
same,TGI,SK-MEL-5 melanoma,15.7 µM
same,GI50,MOLT-4 leukemia,2.22 µM
same,TGI,MOLT-4 leukemia,> 100 µM
same,GI50,MDA-MB-231 breast,1.59 µM
same,TGI,MDA-MB-231 breast,3.28 µM
same,GI50,RPMI-8226 leukemia,1.32 µM
same,TGI,RPMI-8226 leukemia,7.32 µM
same,GI50,HT29 colon,7.29 µM
same,TGI,HT29 colon,51.8 µM
same,GI50,SF-539 CNS,2.4 µM
same,TGI,SF-539 CNS,6.61 µM
same,GI50,SF-268 CNS,4.99 µM
same,TGI,SF-268 CNS,28.6 µM
same,GI50,SNB-75 CNS,1.16 µM
same,TGI,SNB-75 CNS,13.6 µM
same,GI50,HL-60(TB) leukemia,2.34 µM
same,TGI,HL-60(TB) leukemia,6.54 µM
same,GI50,PC-3 prostate,2.67 µM
same,TGI,PC-3 prostate,12.8 µM
same,GI50,U251 CNS,4.45 µM
same,TGI,U251 CNS,17.9 µM
same,GI50,IGROV1 ovarian,1.42 µM
same,TGI,IGROV1 ovarian,3.19 µM
same,GI50,KM12 colon,3.58 µM
same,TGI,KM12 colon,25.7 µM
same,GI50,EKVX NSCLC,1.49 µM
same,TGI,EKVX NSCLC,3.73 µM
same,GI50,SNB-19 CNS,5.83 µM
same,TGI,SNB-19 CNS,23.4 µM
same,GI50,MCF7 breast,1.71 µM
same,TGI,MCF7 breast,3.79 µM
same,GI50,LOX IMVI melanoma,1.69 µM
same,TGI,LOX IMVI melanoma,3.32 µM
same,GI50,OVCAR-4 ovarian,1.58 µM
same,TGI,OVCAR-4 ovarian,2.97 µM
same,GI50,SK-MEL-2 melanoma,8.26 µM
same,TGI,SK-MEL-2 melanoma,21.7 µM
same,GI50,OVCAR-3 ovarian,2.31 µM
same,TGI,OVCAR-3 ovarian,5.58 µM
same,GI50,HCC-2998 colon,5.88 µM
same,TGI,HCC-2998 colon,18.4 µM
same,GI50,NCI-H522 lung,2.24 µM
same,TGI,NCI-H522 lung,5.66 µM
same,GI50,T-47D breast,1.17 µM
same,TGI,T-47D breast,3.6 µM
same,GI50,MALME-3M melanoma,1.98 µM
same,TGI,MALME-3M melanoma,6.04 µM
same,GI50,K-562 leukemia,2.4 µM
same,TGI,K-562 leukemia,> 100 µM
same,GI50,HCT-15 colon,2.2 µM
same,TGI,HCT-15 colon,5.05 µM
same,GI50,786-0 renal,10.6 µM
same,TGI,786-0 renal,24.3 µM
same,GI50,HOP-92 NSCLC,1.5 µM
same,TGI,HOP-92 NSCLC,3.04 µM
same,GI50,NCI-H23 lung,6.87 µM
same,TGI,NCI-H23 lung,24 µM
same,GI50,CCRF-CEM leukemia,1.93 µM
same,TGI,CCRF-CEM leukemia,> 100 µM
same,GI50,HS 578T breast,6 µM
same,TGI,HS 578T breast,64.4 µM
same,GI50,OVCAR-8 ovarian,2.68 µM
same,TGI,OVCAR-8 ovarian,6.89 µM
same,GI50,A549 NSCLC,13.3 µM
same,TGI,A549 NSCLC,> 100 µM
same,GI50,CAKI-1 renal,1.94 µM
same,TGI,CAKI-1 renal,9.11 µM
same,GI50,UO-31 renal,1.46 µM
same,TGI,UO-31 renal,4.18 µM
same,GI50,NCI-H460 lung,11.6 µM
same,TGI,NCI-H460 lung,32.2 µM
same,GI50,MDA-MB-435,5.98 µM
same,TGI,MDA-MB-435,19.5 µM
same,GI50,SN12C renal,4.25 µM
same,TGI,SN12C renal,23.4 µM
same,GI50,NCI/ADR-RES ovarian,3.16 µM
same,TGI,NCI/ADR-RES ovarian,42.3 µM
same,GI50,A498 renal,13.7 µM
same,TGI,A498 renal,45.2 µM
same,GI50,RXF 393 renal,1.49 µM
same,TGI,RXF 393 renal,2.85 µM
same,GI50,SW-620 colon,2.09 µM
same,TGI,SW-620 colon,4.73 µM
same,GI50,ACHN renal,1.73 µM
same,TGI,ACHN renal,3.18 µM
same,GI50,UACC-62 melanoma,3.46 µM
same,TGI,UACC-62 melanoma,16.1 µM
same,GI50,BT-549 breast,8.56 µM
same,TGI,BT-549 breast,22.2 µM
same,GI50,COLO 205 colon,13 µM
same,TGI,COLO 205 colon,29.3 µM
same,GI50,OVCAR-5 ovarian,1.98 µM
same,TGI,OVCAR-5 ovarian,4.13 µM
same,GI50,M14 melanoma,9.96 µM
same,TGI,M14 melanoma,32.7 µM
same,GI50,SK-MEL-28 melanoma,3.36 µM
same,TGI,SK-MEL-28 melanoma,10.8 µM
same,GI50,HCT-116 colon,1.93 µM
same,TGI,HCT-116 colon,3.99 µM
same,GI50,UACC-257 melanoma,2.61 µM
same,TGI,UACC-257 melanoma,6.72 µM
same,GI50,SK-OV-3 ovarian,13 µM
same,TGI,SK-OV-3 ovarian,50.7 µM
same,GI50,SF-295 CNS,6.55 µM
same,TGI,SF-295 CNS,24 µM
same,GI50,HOP-62 NSCLC,11.5 µM
same,TGI,HOP-62 NSCLC,27.6 µM
